Source: patent US20150353495A1 (PORTOLA PHARMACEUTICALS, INC., priority 2010, published 2015)

Assays:
JAK3 = target: T1, JAK3 (Homo sapiens, UniProt P52333); assay: Z'-LYTE kinase assay JAK3; assay type: biochemical
T1 construct: 5 μl of catalytic domain recombinant Kinase enzyme+Tyr peptide substrate (Invitrogen, CA); purchased Invitrogen
Procedure, shortened: (§1)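 Catalytic-domain recombinant kinase was incubated with Tyr6 FRET peptide, ATP and compound (1% DMSO final) for 1 h at room temperature. Protease development followed for 1 h, cleaving only non-phosphorylated peptide. Inhibition of phosphorylation was read as coumarin/fluorescein FRET fluorescence.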

TYK2 = target: T2, TYK2 (Homo sapiens, UniProt P29597); assay: Z'-LYTE kinase assay TYK2; assay type: biochemical
T2 construct: 5 μl of catalytic domain recombinant Kinase enzyme+Tyr peptide substrate (Invitrogen, CA); purchased Invitrogen
T2 sequence (P29597 897-1176 limits assumed): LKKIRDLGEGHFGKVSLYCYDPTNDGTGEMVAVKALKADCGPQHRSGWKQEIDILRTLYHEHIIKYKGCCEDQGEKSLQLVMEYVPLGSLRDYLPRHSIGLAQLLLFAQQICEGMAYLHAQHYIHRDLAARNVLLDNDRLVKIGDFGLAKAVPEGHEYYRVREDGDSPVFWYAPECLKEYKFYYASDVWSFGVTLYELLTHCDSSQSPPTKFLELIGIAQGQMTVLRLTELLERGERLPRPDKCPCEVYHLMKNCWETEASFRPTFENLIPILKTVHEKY
Procedure, shortened: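 Recombinant catalytic-domain TYK2 with Tyr6 peptide in Z′-LYTE FRET format, 1% DMSO final, kinase reaction 1 h at room temperature, then protease development 1 h. Fluorescence read at 445/520 nm (excitation 400 nm), percent phosphorylation vs no-inhibitor control, IC50 from 4-parameter logistic fit.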

JAK1 = target: T3, JAK1 (Homo sapiens, UniProt P23458); assay: Z'-LYTE kinase assay JAK1; assay type: biochemical
T3 construct: 5 μl of catalytic domain recombinant Kinase enzyme+Tyr peptide substrate (Invitrogen, CA); purchased Invitrogen
Procedure, shortened: as §1

[1] = tested on: JAK1/3 signaling to STAT6 in Ramos B cells; assay: IL4 stimulation of JAK1/3 signaling to STAT6 in Ramos B cells (pSTAT6 Y641, FACS); assay type: cell-based; conditions: Homo sapiens; for inhibition at 0.2 µM: 0.2 uM compound, read-out: IL-4/STAT6 in Ramos Percent Inhibition at 0.2 uM; for inhibition at 1 µM: 1.0 uM compound, read-out: IL-4/STAT6 in Ramos Percent Inhibition at 1.0 uM
Experimental: IL4 stimulation of JAK1/3 signaling to STATE in Ramos B cells:
As an alternative strategy to measure effect of JAK3 inhibitors on JAK1/3 dependent cytokine signaling pathways, IL4 stimulation of the Ramos Burkett's B cell line is used. IL4 engages a receptor consisting of the IL4 receptor alpha chain and the common gamma chain. […] Ramos B cells are suspended in tissue culture media containing 10% fetal calf serum at 10×10̂6 cells/ml. 100 μl aliquots are pre-treated for 1 hour with various concentrations of compound, and then stimulated for 15 minutes with 15 ng IL4. The signaling reaction is terminated by fixing in 2% paraformaldehyde for 10 minutes at room temperature. Fixed cells are then washed and permeablized by suspension in 100% methanol at −80° C. Following overnight incubation at 4° C., cells are washed and resuspended in PBS containing 0.5% bovine serum albumin containing pSTAT6 Y641-PE conjugated antibody. After 1 hour incubation, cells are washed and the extent of STAT6 phosphorlyation in Ramos cells is measured by FACS analysis.

JAK2 = target: T4, JAK2 (Homo sapiens, UniProt O60674); assay: Z'-LYTE kinase assay JAK2; assay type: biochemical
T4 construct: 5 μl of catalytic domain recombinant Kinase enzyme+Tyr peptide substrate (Invitrogen, CA); purchased Invitrogen
Procedure, shortened: as §1

T1 sequence (P52333 822-1111 limits assumed): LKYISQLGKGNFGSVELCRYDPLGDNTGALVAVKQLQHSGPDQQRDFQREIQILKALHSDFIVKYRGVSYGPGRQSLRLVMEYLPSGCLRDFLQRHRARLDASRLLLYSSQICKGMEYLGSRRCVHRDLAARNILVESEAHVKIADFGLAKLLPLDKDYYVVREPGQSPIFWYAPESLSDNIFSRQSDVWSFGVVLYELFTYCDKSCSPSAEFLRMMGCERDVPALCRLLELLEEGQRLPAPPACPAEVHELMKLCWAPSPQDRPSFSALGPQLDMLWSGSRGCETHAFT
T4 sequence (O60674 849-1124 limits assumed): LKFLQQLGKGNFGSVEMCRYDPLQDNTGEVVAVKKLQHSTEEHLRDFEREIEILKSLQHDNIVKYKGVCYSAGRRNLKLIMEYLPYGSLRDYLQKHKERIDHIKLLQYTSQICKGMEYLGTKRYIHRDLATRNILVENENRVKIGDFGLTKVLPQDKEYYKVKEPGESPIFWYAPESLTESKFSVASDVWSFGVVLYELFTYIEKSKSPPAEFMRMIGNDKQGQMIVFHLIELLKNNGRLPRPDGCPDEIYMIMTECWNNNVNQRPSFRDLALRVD
T3 sequence (P23458 875-1153 limits assumed): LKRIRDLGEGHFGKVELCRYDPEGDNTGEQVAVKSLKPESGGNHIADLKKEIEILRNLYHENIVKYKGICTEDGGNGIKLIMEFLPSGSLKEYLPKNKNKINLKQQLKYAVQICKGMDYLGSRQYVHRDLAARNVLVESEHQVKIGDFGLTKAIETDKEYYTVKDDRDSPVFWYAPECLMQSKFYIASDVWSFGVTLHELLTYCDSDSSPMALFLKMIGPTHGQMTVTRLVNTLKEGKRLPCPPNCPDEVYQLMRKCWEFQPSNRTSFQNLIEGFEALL

SMILES	IC50 (JAK3)	IC50 (TYK2)	IC50 (JAK1)	IC50 (JAK2)	inhibition at 0.2 µM [1]	inhibition at 1 µM [1]
NC(=O)c1cnc(Nc2ccc(N3CCOCC3)cc2)cc1Nc1ccc(N2CCOCC2)cc1 [Example 16, 4,6-bis(4-morpholinophenylamino)nicotinamide]	10 to 100 nM	> 1000 nM	> 1000 nM	> 1000 nM	17%	46%
NC(=O)c1cnc(Nc2ccc(C(=O)N3CCCC3)cc2)cc1NCC1CCCC1 [Example 41, 4-(cyclopentylmethylamino)-6-(4-(pyrrolidine-1-carbonyl)phenylamino)nicotinamide]	10 to 100 nM	10 to 100 nM	100 to 1000 nM	100 to 1000 nM	31%	59%
NC(=O)c1cnc(Nc2ccc(N3CCCC3=O)c(Cl)c2)cc1NCc1cccc(F)c1 [Example 62, 6-(3-chloro-4-(2-oxopyrrolidin-1-yl)phenylamino)-4-(3-fluorobenzylamino)nicotinamide]	10 to 100 nM	> 1000 nM	100 to 1000 nM	100 to 1000 nM	29%	42%
NC(=O)c1cnc(Nc2ccc(N3CCCCC3=O)cc2)cc1NCc1cccc(F)c1 [Example 64, 4-(3-fluorobenzylamino)-6-(4-(2-oxopiperidin-1-yl)phenylamino)nicotinamide]	1 to 10 nM	100 to 1000 nM	100 to 1000 nM	10 to 100 nM	32%	50%
NC(=O)c1cnc(Nc2cccc(N3CCOCC3)c2)cc1NCc1cccc(F)c1 [Example 65, 4-(3-fluorobenzylamino)-6-(3-morpholinophenylamino)nicotinamide]	1 to 10 nM	> 1000 nM	100 to 1000 nM	10 to 100 nM	28%	49%

More lines, main results first:

IC50 (JAK3)	IC50 (TYK2)	IC50 (JAK1)	IC50 (JAK2)	SMILES	inhibition at 0.2 µM [1]	inhibition at 1 µM [1]
1 to 10 nM	100 to 1000 nM	100 to 1000 nM	100 to 1000 nM	NC(=O)c1cnc(Nc2cccc(N3CCOCC3)c2)cc1NCc1ccccc1 [Example 31, 4-(benzylamino)-6-(3-morpholinophenylamino)nicotinamide]	27%	50%
1 to 10 nM	100 to 1000 nM	100 to 1000 nM	100 to 1000 nM	NC(=O)c1cnc(Nc2ccc(C(=O)N3CCOCC3)cc2)cc1NCc1ccccc1 [Example 40, 4-(benzylamino)-6-(4-(morpholine-4-carbonyl)phenylamino)nicotinamide]	46%	69%
1 to 10 nM	100 to 1000 nM	100 to 1000 nM	100 to 1000 nM	NC(=O)c1cnc(Nc2ccc(C(=O)N3CCC3)cc2)cc1NCc1ccccc1 [Example 46, 6-(4-(azetidine-1-carbonyl)phenylamino)-4-(benzylamino)nicotinamide]	54%	80%
1 to 10 nM	> 1000 nM	100 to 1000 nM	10 to 100 nM	NC(=O)c1cnc(Nc2cccc(OCCN3CCCC3)c2)cc1NCc1cccc(F)c1 [Example 58, 4-(3-fluorobenzylamino)-6-(3-(2-(pyrrolidin-1-yl)ethoxy)phenylamino)nicotinamide]	33%	60%
1 to 10 nM	> 1000 nM	100 to 1000 nM	100 to 1000 nM	NC(=O)c1cnc(Nc2cccc(OCCN3CCCC3)c2)cc1NCc1cccnc1 [Example 60, 4-(pyridin-3-ylmethylamino)-6-(3-(2-(pyrrolidin-1-yl)ethoxy)phenylamino)nicotinamide]	22%	40%
1 to 10 nM	> 1000 nM	100 to 1000 nM	100 to 1000 nM	COc1cc(Nc2cc(NCc3cccc(F)c3)c(C(N)=O)cn2)ccc1N1CCCC1=O [Example 63, 4-(3-fluorobenzylamino)-6-(3-methoxy-4-(2-oxopyrrolidin-1-yl)phenylamino)nicotinamide]	32%	46%
